From patent US10227344B2, “CK2 inhibitors, compositions and methods thereof” (Polaris Pharmaceuticals, Inc., priority 2016, dated 2019)

What was measured:
Assay type in all cases: cell-based
BxPC3 = assay: Cancer cell panel, cell viability (resazurin): Pancreatic, BxPC3; conditions: 72 hours, labelled drug combined with Example 3
EOL-1 = assay: Cancer cell panel, cell viability (resazurin): Leukemia, EOL-1; conditions: EOL-1 (Leukemia), 72 hours; labelled drug combined with Example 3
A549 = assay: Cancer cell panel, cell viability (resazurin): NSCLC, A549; conditions: 72 hours, labelled drug combined with Example 3
Daudi = assay: Cancer cell panel, cell viability (resazurin): Burkitt's Lymphoma, Daudi; conditions: 72 hours, labelled drug combined with Example 3
Protocol: (§1) Cells were plated in 96-well plates and treated for 72 hours with a serially diluted CK2 inhibitor or anti-cancer drug or their combination. The suspension cell lines were treated right after plating, while the adherent cells were allowed to attach overnight prior to the start of the treatment.
(§2) Cell viability was determined by adding resazurin to cell cultures and measuring fluorescence with a plate reader. Relative cell viability was calculated by dividing the cell viability signal from a test sample by that of a non-treated control. […] Bliss Independence and Highest Single Agent models were used to determine if there is synergy, additivity or antagonism between the CK2 inhibitor and an anti-cancer drug.

RPMI8226 = assay: Cancer cell panel, cell viability (resazurin): multiple myeloma, RPMI8226; conditions: 72 hours, labelled drug combined with Example 3
Protocol: as §1, §2

LoVo = assay: Cancer cell panel, cell viability (resazurin): Colon, LoVo; conditions: 72 hours, labelled drug combined with Example 3
BT-20 = assay: Cancer cell panel, cell viability (resazurin): Breast, BT-20; conditions: BT-20 (Breast), 72 hours; labelled drug combined with Example 3
Caov-3 = assay: Cancer cell panel, cell viability (resazurin): Ovarian, Caov-3; conditions: Caov-3 (Ovarian), 72 hours; labelled drug combined with Example 3
Raji = assay: Cancer cell panel, cell viability (resazurin): Burkitt's Lymphoma, Raji; conditions: 72 hours, labelled drug combined with Example 3
Colo205 = assay: Cancer cell panel, cell viability (resazurin): Colon, Colo205; conditions: 72 hours, labelled drug combined with Example 3
ZR-75-1 = assay: Cancer cell panel, cell viability (resazurin): Breast, ZR-75-1; conditions: ZR-75-1 (Breast), 72 hours; labelled drug combined with Example 3
MDA-MB-157 = assay: Cancer cell panel, cell viability (resazurin): Breast, MDA-MB-157; conditions: MDA-MB-157 (Breast), 72 hours; labelled drug combined with Example 3
WM-115 = assay: Cancer cell panel, cell viability (resazurin): Melanoma, WM-115; conditions: WM-115 (Melanoma), 72 hours; labelled drug combined with Example 3
H23 = assay: Cancer cell panel, cell viability (resazurin): NSCLC, H23; conditions: 72 hours, labelled drug combined with Example 3
Protocol: as §1, §2

HCT116 = assay: Cancer cell panel, cell viability (resazurin): Colon, HCT116; conditions: 72 hours, labelled drug combined with Example 3
MDA-MB-453 = assay: Cancer cell panel, cell viability (resazurin): Breast, MDA-MB-453; conditions: MDA-MB-453 (Breast), 72 hours; labelled drug combined with Example 3
Protocol: as §1, §2

HL60 = assay: Cancer cell panel, cell viability (resazurin): Leukemia, HL60; conditions: 72 hours, labelled drug combined with Example 3
K562 = assay: Cancer cell panel, cell viability (resazurin): Leukemia, K562; conditions: 72 hours, labelled drug combined with Example 3
HT29 = assay: Cancer cell panel, cell viability (resazurin): Colon, HT29; conditions: 72 hours, labelled drug combined with Example 3
Protocol: as §1, §2

SK-MEL-3 = assay: Cancer cell panel, cell viability (resazurin): Melanoma, SK-MEL-3; conditions: SK-MEL-3 (Melanoma), 72 hours; labelled drug combined with Example 3
Protocol: as §1, §2

SKOV-3 = assay: Cancer cell panel, cell viability (resazurin): Ovarian, SKOV-3; conditions: SKOV-3 (Ovarian), 72 hours; labelled drug combined with Example 3
Protocol: as §1, §2

H1299 = assay: Cancer cell panel, cell viability (resazurin): NSCLC, H1299; conditions: 72 hours, labelled drug combined with Example 3
T47D = assay: Cancer cell panel, cell viability (resazurin): Breast, T47D; conditions: 72 hours, labelled drug combined with Example 3
Protocol: as §1, §2

A375 = assay: Cancer cell panel, cell viability (resazurin): Melanoma, A375; conditions: 72 hours, labelled drug combined with Example 3
BT-474 = assay: Cancer cell panel, cell viability (resazurin): Breast, BT-474; conditions: BT-474 (Breast), 72 hours; labelled drug combined with Example 3
H1975 = assay: Cancer cell panel, cell viability (resazurin): NSCLC, H1975; conditions: 72 hours, labelled drug combined with Example 3
OVCAR-3 = assay: Cancer cell panel, cell viability (resazurin): Ovarian, OVCAR-3; conditions: OVCAR-3 (Ovarian), 72 hours; labelled drug combined with Example 3
MDA-MB-231 = assay: Cancer cell panel, cell viability (resazurin): Breast, MDA-MB-231; conditions: MDA-MB-231 (Breast), 72 hours; labelled drug combined with Example 3
SK-MEL-24 = assay: Cancer cell panel, cell viability (resazurin): Melanoma, SK-MEL-24; conditions: SK-MEL-24 (Melanoma), 72 hours; labelled drug combined with Example 3
DLD-1 = assay: Cancer cell panel, cell viability (resazurin): Colon, DLD-1; conditions: DLD-1 (Colon), 72 hours; labelled drug combined with Example 3
H2122 = assay: Cancer cell panel, cell viability (resazurin): NSCLC, H2122; conditions: 72 hours, labelled drug combined with Example 3
SkBr-3 = assay: Cancer cell panel, cell viability (resazurin): Breast, SkBr-3; conditions: SkBr-3 (Breast), 72 hours; labelled drug combined with Example 3
H460 = assay: Cancer cell panel, cell viability (resazurin): NSCLC, H460; conditions: 72 hours, labelled drug combined with Example 3
Protocol: as §1, §2

## CC(=O)O[C@H]1C(=O)[C@@]2(C)[C@H]([C@H](OC(=O)c3ccccc3)[C@]3(O)C[C@H](OC(=O)[C@H](O)[C@@H](NC(=O)c4ccccc4)c4ccccc4)C(C)=C1C3(C)C)[C@]1(OC(C)=O)CO[C@@H]1C[C@@H]2O [Paclitaxel, paclitaxel]
BxPC3
  synergy, additivity or antagonism of the combination of Example 3 with the anti-cancer drug: + + (Slight synergy relative to each agent alone (CI = 0.75-0.9 by Bliss Independence Model))
EOL-1
  synergy, additivity or antagonism of the combination of Example 3 with the anti-cancer drug: + (Additive relative to each agent alone (CI = 0.9-1 by Bliss Independence Model and <0.9 by Highest Single Agent Model))
A549
  synergy, additivity or antagonism of the combination of Example 3 with the anti-cancer drug: + (Additive relative to each agent alone (CI = 0.9-1 by Bliss Independence Model and <0.9 by Highest Single Agent Model))
Daudi
  synergy, additivity or antagonism of the combination of Example 3 with the anti-cancer drug: + (Additive relative to each agent alone (CI = 0.9-1 by Bliss Independence Model and <0.9 by Highest Single Agent Model))
RPMI8226
  synergy, additivity or antagonism of the combination of Example 3 with the anti-cancer drug: + (Additive relative to each agent alone (CI = 0.9-1 by Bliss Independence Model and <0.9 by Highest Single Agent Model))
LoVo
  synergy, additivity or antagonism of the combination of Example 3 with the anti-cancer drug: + (Additive relative to each agent alone (CI = 0.9-1 by Bliss Independence Model and <0.9 by Highest Single Agent Model))
BT-20
  synergy, additivity or antagonism of the combination of Example 3 with the anti-cancer drug: + + (Slight synergy relative to each agent alone (CI = 0.75-0.9 by Bliss Independence Model))
Caov-3
  synergy, additivity or antagonism of the combination of Example 3 with the anti-cancer drug: + (Additive relative to each agent alone (CI = 0.9-1 by Bliss Independence Model and <0.9 by Highest Single Agent Model))
Raji
  synergy, additivity or antagonism of the combination of Example 3 with the anti-cancer drug: + + (Slight synergy relative to each agent alone (CI = 0.75-0.9 by Bliss Independence Model))
Colo205
  synergy, additivity or antagonism of the combination of Example 3 with the anti-cancer drug: + + + (Synergy relative to each agent alone (CI = 0.4-0.74 by Bliss Independence Model))
ZR-75-1
  synergy, additivity or antagonism of the combination of Example 3 with the anti-cancer drug: + (Additive relative to each agent alone (CI = 0.9-1 by Bliss Independence Model and <0.9 by Highest Single Agent Model))
MDA-MB-157
  synergy, additivity or antagonism of the combination of Example 3 with the anti-cancer drug: + (Additive relative to each agent alone (CI = 0.9-1 by Bliss Independence Model and <0.9 by Highest Single Agent Model))
WM-115
  synergy, additivity or antagonism of the combination of Example 3 with the anti-cancer drug: + (Additive relative to each agent alone (CI = 0.9-1 by Bliss Independence Model and <0.9 by Highest Single Agent Model))
H23
  synergy, additivity or antagonism of the combination of Example 3 with the anti-cancer drug: + + (Slight synergy relative to each agent alone (CI = 0.75-0.9 by Bliss Independence Model))
HCT116
  synergy, additivity or antagonism of the combination of Example 3 with the anti-cancer drug: + (Additive relative to each agent alone (CI = 0.9-1 by Bliss Independence Model and <0.9 by Highest Single Agent Model))
MDA-MB-453
  synergy, additivity or antagonism of the combination of Example 3 with the anti-cancer drug: + (Additive relative to each agent alone (CI = 0.9-1 by Bliss Independence Model and <0.9 by Highest Single Agent Model))
HL60
  synergy, additivity or antagonism of the combination of Example 3 with the anti-cancer drug: + + (Slight synergy relative to each agent alone (CI = 0.75-0.9 by Bliss Independence Model))
K562
  synergy, additivity or antagonism of the combination of Example 3 with the anti-cancer drug: + (Additive relative to each agent alone (CI = 0.9-1 by Bliss Independence Model and <0.9 by Highest Single Agent Model))
HT29
  synergy, additivity or antagonism of the combination of Example 3 with the anti-cancer drug: + (Additive relative to each agent alone (CI = 0.9-1 by Bliss Independence Model and <0.9 by Highest Single Agent Model))
SK-MEL-3
  synergy, additivity or antagonism of the combination of Example 3 with the anti-cancer drug: + (Additive relative to each agent alone (CI = 0.9-1 by Bliss Independence Model and <0.9 by Highest Single Agent Model))
SKOV-3
  synergy, additivity or antagonism of the combination of Example 3 with the anti-cancer drug: + (Additive relative to each agent alone (CI = 0.9-1 by Bliss Independence Model and <0.9 by Highest Single Agent Model))
H1299
  synergy, additivity or antagonism of the combination of Example 3 with the anti-cancer drug: + (Additive relative to each agent alone (CI = 0.9-1 by Bliss Independence Model and <0.9 by Highest Single Agent Model))
T47D
  synergy, additivity or antagonism of the combination of Example 3 with the anti-cancer drug: + (Additive relative to each agent alone (CI = 0.9-1 by Bliss Independence Model and <0.9 by Highest Single Agent Model))
A375
  synergy, additivity or antagonism of the combination of Example 3 with the anti-cancer drug: + (Additive relative to each agent alone (CI = 0.9-1 by Bliss Independence Model and <0.9 by Highest Single Agent Model))
BT-474
  synergy, additivity or antagonism of the combination of Example 3 with the anti-cancer drug: + (Additive relative to each agent alone (CI = 0.9-1 by Bliss Independence Model and <0.9 by Highest Single Agent Model))
H1975
  synergy, additivity or antagonism of the combination of Example 3 with the anti-cancer drug: + (Additive relative to each agent alone (CI = 0.9-1 by Bliss Independence Model and <0.9 by Highest Single Agent Model))
OVCAR-3
  synergy, additivity or antagonism of the combination of Example 3 with the anti-cancer drug: + (Additive relative to each agent alone (CI = 0.9-1 by Bliss Independence Model and <0.9 by Highest Single Agent Model))
MDA-MB-231
  synergy, additivity or antagonism of the combination of Example 3 with the anti-cancer drug: + (Additive relative to each agent alone (CI = 0.9-1 by Bliss Independence Model and <0.9 by Highest Single Agent Model))
SK-MEL-24
  synergy, additivity or antagonism of the combination of Example 3 with the anti-cancer drug: + (Additive relative to each agent alone (CI = 0.9-1 by Bliss Independence Model and <0.9 by Highest Single Agent Model))
DLD-1
  synergy, additivity or antagonism of the combination of Example 3 with the anti-cancer drug: + + + (Synergy relative to each agent alone (CI = 0.4-0.74 by Bliss Independence Model))
H2122
  synergy, additivity or antagonism of the combination of Example 3 with the anti-cancer drug: + (Additive relative to each agent alone (CI = 0.9-1 by Bliss Independence Model and <0.9 by Highest Single Agent Model))
SkBr-3
  synergy, additivity or antagonism of the combination of Example 3 with the anti-cancer drug: + (Additive relative to each agent alone (CI = 0.9-1 by Bliss Independence Model and <0.9 by Highest Single Agent Model))
H460
  synergy, additivity or antagonism of the combination of Example 3 with the anti-cancer drug: + + (Slight synergy relative to each agent alone (CI = 0.75-0.9 by Bliss Independence Model))
